Our source for the IC50 values is patent US10214546B2, “Btk inhibitors” (MERCK SHARP & DOHME CORP., priority 2014, dated 2019).

Where two headings read alike, the source gives them in different places.

For test [1], the target named is BTK enzyme (recombinant full-length BTK, hBTK) (Homo sapiens (Human), UniProt Q06187). Nature of the test: BTK enzymatic activity LANCE TR-FRET assay. The test is classed as biochemical. The note with it: 50 pM hBTK, 25 μM ATP, 2 μM biotin-A5-peptide; compound range 1 μM to 0.017 nM; read-out: BTK binding IC50.
Test [2] deals with adenosine uptake into HeLa cells. The experiment in a line: [3H]Adenosine uptake assay in HeLa cells. The test is classed as cell-based. The note with it: [3H]adenosine accumulation in HeLa cells, compound range 10 μM to 0.032 nM, read-out: ADU inhibition IC50. Put shortly:
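HeLa cells in HBSS + 5% FBS were preincubated 30 min at ambient temperature with compound (ten-point 1:3 series, 10 µM–[…] final), then given [3H]adenosine (added as a 500 nM solution) for 60 min. Cell-associated label was read by scintillating-plate proximity counting; IC50 from 4-parameter fit of cps versus log concentration.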

BTK enzyme (recombinant full-length BTK, hBTK), sequence (Q06187 whole entry): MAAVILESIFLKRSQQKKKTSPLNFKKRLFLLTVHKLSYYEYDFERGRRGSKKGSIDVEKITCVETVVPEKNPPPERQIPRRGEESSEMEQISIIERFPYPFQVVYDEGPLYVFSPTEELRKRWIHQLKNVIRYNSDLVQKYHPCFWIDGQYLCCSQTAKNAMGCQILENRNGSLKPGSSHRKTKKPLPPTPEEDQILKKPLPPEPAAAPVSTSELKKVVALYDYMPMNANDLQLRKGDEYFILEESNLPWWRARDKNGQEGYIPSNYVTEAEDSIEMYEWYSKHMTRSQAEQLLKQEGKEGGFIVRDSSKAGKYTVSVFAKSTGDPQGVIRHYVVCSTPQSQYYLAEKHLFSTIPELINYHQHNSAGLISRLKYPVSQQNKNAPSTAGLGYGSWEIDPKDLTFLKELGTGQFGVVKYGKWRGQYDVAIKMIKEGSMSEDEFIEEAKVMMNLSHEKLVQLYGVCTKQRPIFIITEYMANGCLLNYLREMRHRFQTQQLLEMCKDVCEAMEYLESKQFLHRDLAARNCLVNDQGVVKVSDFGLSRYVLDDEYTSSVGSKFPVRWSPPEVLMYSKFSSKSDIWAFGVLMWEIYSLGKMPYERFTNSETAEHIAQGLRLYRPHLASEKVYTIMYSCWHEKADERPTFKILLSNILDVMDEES

Usually IC50 stands for the concentration needed to halve the response being measured. `COc1cc([C@](C)(O)c2cccc(C(F)(F)F)c2)ccc1-c1nc([C@@H]2CC[C@H]3CCC(=O)N3C2)n2ccnc(N)c12` [Example 142, (6R,8aS)-6-[8-amino-1-(4-{(1R)-1-hydroxy-1-[3-(trifluoromethyl)phenyl]ethyl}-2-methoxyphenyl)imidazo [1,5-a]pyrazin-3-yl]hexahydroindolizin-3(2H)-one]: the IC50 in test [1] was found to be 2 nM; in test [2] (Homo sapiens, HeLa), 7160 nM.
On to `C[C@@](O)(c1ccc(-c2nc([C@@H]3CC[C@H]4CCC(=O)N4C3)n3ccnc(N)c23)cc1)c1cccc(C(F)(F)F)c1` [Example 3, (6R,8aS)-6-(8-amino-1-(4-((R)-1-hydroxy-1-(3-(trifluoromethyl)phenyl)ethyl)phenyl)imidazo[1,5-a]pyrazin-3-yl)hexahydroindolizin-3(2H)-one], for which the IC50 in test [1] was determined as 884 nM; in test [2] (Homo sapiens, HeLa) it was 405 nM.
Take `CC(O)(c1cccc(C(F)(F)F)c1)c1ccc(-c2nc([C@@H]3CC[C@H]4CCC(=O)N4C3)n3c(Cl)cnc(N)c23)c(F)c1` (stereo partly drawn) [Example 193, (6R,8aS)-6-[8-amino-5-chloro-1-(2-fluoro-4-{1-hydroxy-1-[3-(trifluoromethyl)phenyl]ethyl}phenyl)imidazo [1,5-a]pyrazin-3-yl]hexahydroindolizin-3(2H)-one]: the values for the half-maximal inhibitory concentration (IC50) in test [1] and in test [2] were 1.2 nM and 1860 nM, respectively.
For `CC1(C)CC(=O)N2C[C@@H](c3nc(-c4ccc([C@@](C)(O)c5cccc(C(F)(F)F)c5)cc4)c4c(N)nccn34)CC[C@@H]21` [Example 163, (6S,8aR)-6-[8-amino-1-(4-{(1R)-1-hydroxy-1-[3-(trifluoromethyl)phenyl]ethyl}phenyl)imidazo [1,5-a]pyrazin-3-yl]-1,1-dimethylhexahydroindolizin-3(2H)-one] the same measures were 169 nM and 1560 nM.
As to `C[C@@](O)(c1cccc(C(F)(F)F)c1)c1ccc(-c2nc([C@@H]3CC[C@H]4CCC(=O)N4C3)n3ccnc(N)c23)c(C(F)F)c1` [Example 80, (6R,8aS)-6-{8-amino-1-[2-(difluoromethyl)-4-{(1S)-1-hydroxy-1-[3-(trifluoromethyl)phenyl]ethyl}phenyl]imidazo [1,5-a]pyrazin-3-yl}-hexahydroindolizin-3(2H)-one], the IC50 worked out at 808 nM in test [1] and 1730 nM in test [2] (Homo sapiens, HeLa).
On to `CC1(C)C[C@@H]2CC[C@@H](c3nc(-c4ccc(C(C)(O)c5cccc(C(F)F)c5)cc4F)c4c(N)nccn34)CN2C1=O` (stereo partly drawn) [Example 203, (6R,8aS)-6-[8-amino-1-(4-{1-[3-(difluoromethyl)phenyl]-1-hydroxyethyl}-2-fluorophenyl)imidazo[1,5-a]pyrazin-3-yl]-2,2-dimethylhexahydroindolizin-3(2H)-one], for which the IC50 in test [1] was determined as 0.43 nM; in test [2] it was 2260 nM.
